We go through four molecules from US10316100B2, “Treating basal-like genotype cancers” (The UAB Research Foundation, priority 2009, dated 2019).

In series [1] the test system is human pancreatic cancer cells, S013 and S2VP10. Nature of the series: Effect of AT-406 on TRA-8-induced apoptosis of pancreatic cancer cells. The format is cell-based. The settings on record: 10 μM AT-406 alone. An excerpt:
To determine whether AT-406 is able to overcome DR5-apoptosis resistance of pancreatic cancer cells, the effect of AT-406 on TRA-8-induced apoptosis was examined for two lines of human pancreatic cancer cells, S013 and S2VP10, both of which are highly resistant to TRA-8-mediated apoptosis. […] To determine the effect of AT-406 on the DR5/DDX3/cIAP1 protein complex, the amount of cIAP1 was examined by DR5-coIP. […] This was not due to the reduction of DR5-associated DDX3 as DDX3 was equally co-immunoprecipitated with DR5.

In the next series the test system is IAP proteins. As to the kind of experiment: Western blot of IAP proteins in total cell lysates with 3H4 antibody, pancreatic cancer cells. Particulars: S2013 and S2VP10; 1000 ng/ml TRA-8, 10 uM AT-406, overnight. It counts as cell-based, human. For orientation: In western blotting, separated proteins are transferred to a membrane and probed.
Series [2] has as its target T1, DR5/DDX3/cIAP1 protein complex (Homo sapiens, UniProt Q13490).
T1 construct: endogenous in cells; host or cells: S2013 (printed S013) and S2VP10 human pancreatic cancer cells
Nature of the series: cIAP1 in the DR5 complex by DR5-coIP, pancreatic cancer cells. The format is cell-based. Particulars: 10 uM AT-406, 1000 ng/ml TRA-8, overnight.

Series [3] deals with IAP proteins associated with DDX3. Nature of the series: IAP proteins in the DDX3 complex, breast cancer cell lines (DDX3 immunoprecipitation, 3H4 blot). The format is cell-based, human. The settings on record: panel of breast cancer cell lines; 1000 ng/ml TRA-8, 10 uM AT-406, overnight. Here is the method: FIGS. 10A, 10B, and 10C show the in vitro effect of AT-406 on IAPs in breast cancer cell lines. Human breast cancer cell lines (MB436 and 2LMP (FIG. 10A), SUM159 and SUM149 (FIG. 10B), BT474 and MB468 (FIG. 10C) were treated with control medium (lane 1) or 1000 ng/ml TRA-8 (lane 2), or 10 uM AT-406 (lane 3) or both (lane 4) overnight. Cell lysates from treated cells were immunoprecipitated with an anti-DDX3 antibody (clone 3E4). The precipitated proteins were western blotted and the IAP proteins were detected by 3H4 antibody.
Effect of AT-406 on expression of IAP proteins in the DDX3 complex was analyzed in a panel of breast cancer cell lines including triple negative and non-triple negative lines. As previously shown, four triple negative breast cancer lines, […], 2LMP (FIG. 10A), SUM 159, and SUM 149 (FIG. 10B) expressed lower levels of cIAP1 or cIAP2 protein when co-immunoprecipitated with DDX3, compared to two non-triple negative lines, BT474 and MB468 (FIG. 10C), which were resistant to TRA-8-mediated apoptosis.

The next series relates to TRAIL-mediated apoptosis. Particulars: cited from earlier work.
A further series concerns the target cIAP2 (Homo sapiens, UniProt Q13489). The settings on record: cited from earlier work.
Another series concerns the target cIAP1 (Homo sapiens, UniProt Q13490). The settings on record: cited from earlier work.
A further series has as its target XIAP (Homo sapiens, UniProt P98170). Particulars: cited from earlier work.
Series [4] concerns 2LMP orthotopic basal B xenografts. Nature of the series: In vivo efficacy against 2LMP orthotopic xenografts. Set-up: species or system athymic nude mice. The settings on record: 2LMP xenografts; untreated 8.6 days. The method, then:
(§1) The arrows indicate the interval during which antibody was administered (n=9-10 mice/group).
(§2) Treatments were initiated once tumors were well-established, with tumor diameters of about 6 mm, and tumor size was monitored over time.

Series [5] deals with SUM159 orthotopic basal B xenografts. As to the kind of experiment: In vivo efficacy against SUM159 orthotopic xenografts. Set-up: species or system athymic nude mice. The settings on record: untreated 17.9 days. Here is the method:
as §1, §2

Series [6] has as its system triple negative breast cell (TNBC) cell lines (basal). As to the kind of experiment: TRA-8 cytotoxicity against the panel of TNBC cell lines. It counts as cell-based, human. The settings on record: cell lines of basal B subtype (FIG. 1).
The subject of another series is DDX3. Nature of the series: siRNA mediated knockdown of DDX3, Western blot in TRA-8-resistant MDA231 cells. It counts as cell-based, human. The settings on record: among five RNAi constructs. From the text: Design RNAi: an online design tool, BLOCK-iT RNAi Designer (Invitrogen; Carlsbad, Calif.), was used to identify RNAi targets for DDX3. Five targeted siRNA sequences were selected from the top 10 highest scoring RNAi targets (see Table 1).
They were then cloned into the BLOCK-iT U6 entry vector. The siRNA is driven by the U6 promoter and can be transiently expressed in most dividing or nondividing mammalian cell types. Resistant cells were transfected with RNAi used LIPOFECTAMINE 2000 (Invitrogen; Carlsbad, Calif.) for the RNAi response. The decreased DDX3 expression was determined by Western blot analysis using anti-DDX3 antibody 36 hours after transfection. […]
To study the role of DDX3 in DR5 signaling, the importance of endogenous DDX3 in TRA-8-induced apoptosis was examined. […] TRA-8-resistant MDA231 cells were transfected with five RNAi constructs, and protein expression levels of DDX3 were determined by Western blot analysis using monoclonal anti-DDX3 antibody 48 hours post-transfection. […] To further determine the causal role of DDX3 in DR5-mediated apoptosis, DDX3 expression was reduced in a panel of tumor cells and their susceptibility to TRA-8-induced apoptosis analyzed. […]

Chain of cIAP1 (Q13490 whole entry): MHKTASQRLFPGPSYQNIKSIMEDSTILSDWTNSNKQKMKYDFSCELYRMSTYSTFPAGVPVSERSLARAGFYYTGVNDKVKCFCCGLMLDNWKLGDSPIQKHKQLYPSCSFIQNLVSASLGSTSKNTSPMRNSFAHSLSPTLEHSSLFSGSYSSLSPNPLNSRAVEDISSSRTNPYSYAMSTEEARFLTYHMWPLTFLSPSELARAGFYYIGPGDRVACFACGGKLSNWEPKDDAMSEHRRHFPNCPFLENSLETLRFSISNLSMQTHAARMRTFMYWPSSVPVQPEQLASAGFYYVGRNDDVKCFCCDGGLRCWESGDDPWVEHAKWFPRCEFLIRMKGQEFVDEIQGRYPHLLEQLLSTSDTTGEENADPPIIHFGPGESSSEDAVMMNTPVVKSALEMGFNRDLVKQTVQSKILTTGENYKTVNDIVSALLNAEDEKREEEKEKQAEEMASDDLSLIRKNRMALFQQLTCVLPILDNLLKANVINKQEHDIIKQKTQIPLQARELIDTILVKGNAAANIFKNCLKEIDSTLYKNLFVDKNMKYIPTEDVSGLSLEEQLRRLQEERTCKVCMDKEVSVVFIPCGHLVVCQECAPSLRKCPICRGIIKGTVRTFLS
T1 sequence (Q13490 whole entry, one chain of several): as the sequence (Q13490 whole entry) above
Chain of cIAP2 (Q13489 whole entry): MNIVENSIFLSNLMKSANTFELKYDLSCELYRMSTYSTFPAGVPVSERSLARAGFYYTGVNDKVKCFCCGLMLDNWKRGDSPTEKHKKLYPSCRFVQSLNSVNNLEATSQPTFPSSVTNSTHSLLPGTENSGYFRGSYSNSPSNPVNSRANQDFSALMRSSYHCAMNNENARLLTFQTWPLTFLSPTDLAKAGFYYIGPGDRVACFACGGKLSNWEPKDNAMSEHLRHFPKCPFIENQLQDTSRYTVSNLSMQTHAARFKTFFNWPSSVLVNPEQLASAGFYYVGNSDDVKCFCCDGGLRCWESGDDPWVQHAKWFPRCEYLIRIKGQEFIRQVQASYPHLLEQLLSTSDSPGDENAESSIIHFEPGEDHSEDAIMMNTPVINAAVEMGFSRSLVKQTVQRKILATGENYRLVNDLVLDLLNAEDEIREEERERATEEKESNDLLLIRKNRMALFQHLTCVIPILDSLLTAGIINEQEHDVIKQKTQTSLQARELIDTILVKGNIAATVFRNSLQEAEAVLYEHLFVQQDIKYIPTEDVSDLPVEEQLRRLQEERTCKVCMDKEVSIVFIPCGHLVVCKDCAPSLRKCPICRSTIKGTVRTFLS
Chain of XIAP (P98170 whole entry): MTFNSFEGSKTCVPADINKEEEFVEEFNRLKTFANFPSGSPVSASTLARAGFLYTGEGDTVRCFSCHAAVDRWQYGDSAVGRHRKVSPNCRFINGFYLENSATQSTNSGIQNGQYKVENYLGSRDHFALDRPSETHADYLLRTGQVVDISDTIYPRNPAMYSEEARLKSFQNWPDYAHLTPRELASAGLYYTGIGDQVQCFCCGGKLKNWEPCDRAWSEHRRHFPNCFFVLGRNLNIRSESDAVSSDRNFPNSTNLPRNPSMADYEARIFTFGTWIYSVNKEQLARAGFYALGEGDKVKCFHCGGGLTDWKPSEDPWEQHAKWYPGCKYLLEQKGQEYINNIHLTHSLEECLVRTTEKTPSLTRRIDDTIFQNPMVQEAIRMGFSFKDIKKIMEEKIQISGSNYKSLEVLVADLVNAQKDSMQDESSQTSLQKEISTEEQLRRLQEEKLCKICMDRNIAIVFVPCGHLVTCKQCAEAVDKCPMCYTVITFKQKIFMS

For `CN[C@@H](C)C(=O)N[C@H]1CN(C(=O)CC(C)C)CC[C@H]2CC[C@@H](C(=O)NC(c3ccccc3)c3ccccc3)N2C1=O` [AT-406], in [1], the cell death result was “did not induce significant cell death”. The “total IAP protein expression” value in the series with IAP proteins is “did not alter”. Besides, the “amount of cIAP1 in the DR5 complex” value in series [2] is listed as “dramatic reduction”. Moreover, the “levels of the IAP proteins associated with DDX3” value in series [3] is listed as “significantly reduced”. Moreover, the “effect on TRAIL-mediated apoptosis” value in the series on TRAIL-mediated apoptosis was “synergistically enhances”. Moreover, the affinity result on cIAP2, on cIAP1 and at XIAP was “low nanomolar affinity” in each case.
For `COc1cccc2c1C(=O)c1c(O)c3c(c(O)c1C2=O)C[C@@](O)(C(=O)CO)C[C@@H]3O[C@H]1C[C@H](N)[C@H](O)[C@H](C)O1` [Adriamycin], in series [4], the tumor doubling time was 51.1 days. Further, the “mean tumor doubling time” value in series [5] came to 41.9 days.
Regarding “TRAIL: Recombinant soluble TRAIL purchased from Alexis Biochemicals”, the “cytotoxicity compared with TRA-8” value in series [6] is recorded as “Equivalent cytotoxicity”.

B1: construct #2: DDX3 RNAi construct 562-582, SEQ ID NO: 6 and 7 (nucleic acid)
chain 1: CACCGGAGAAATTATCATGGGAAACCGAAGTTTCCCATGATAATTTCTCC
chain 2: AAAAGGAGAAATTATCATGGGAAACTTCGGTTTCCCATGATAATTTCTCC
modifications: expressed or natural sequence
On to B1, for which the “rank as inhibitor of DDX3 expression” value in the series with DDX3 was “most effective”.
